Experimental data: the supplement of paper PMC10883282
Counter-ions that a name gives are not always drawn. ± gives the standard deviation of the averaged measurements.

System: KHOS-NP
Assay: relative viability vs DMSO control (72 h) (fraction); higher = more viable cells
Summary of the method: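 Serially diluted compound, 2.5 µl from source plates spanning 10 mM to 0.0002 mM, was added 24 h after sarcoma cell lines were seeded in 384-well plates at densities targeting 80–90% confluence. Plates then sat 72 h at 37 °C, 5% CO2, with 0.1% DMSO vehicle and a 5 µM positive control. Relative viability came from ATPLite as percent growth, averaged over up to triplicate wells, and was rescaled with 1 as full and 0 as none.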

| Compound | relative viability (0.00017 µM) | relative viability (0.00051 µM) | relative viability (0.00152 µM) | relative viability (0.00457 µM) | relative viability (0.01372 µM) | relative viability (0.04115 µM) | relative viability (0.1235 µM) | relative viability (0.3704 µM) | relative viability (1.111 µM) | relative viability (3.333 µM) | relative viability (10 µM) | relative viability (2 pM) | relative viability (5 pM) | relative viability (15 pM) | relative viability (50 pM) | relative viability (0.00014 µM) | relative viability (0.00041 µM) | relative viability (0.0012 µM) | relative viability (0.0037 µM) | relative viability (0.011 µM) | relative viability (200 fM) | relative viability (600 fM) |
| --- | --- | --- | --- | --- | --- | --- | --- | --- | --- | --- | --- | --- | --- | --- | --- | --- | --- | --- | --- | --- | --- | --- |
| CNC(=O)c1cc(Oc2ccc(NC(=O)Nc3ccc(Cl)c(C(F)(F)F)c3)c(F)c2)ccn1 [Regorafenib] | 1.09 ± 0.013 | 1.11 ± 0.012 | 1.12 ± 0.019 | 1.12 ± 0.013 | 1.112 ± 0.0027 | 1.1 ± 0.016 | 0.787 ± 0.57 | 1.07 ± 0.018 | 0.938 ± 0.055 | 0.569 ± 0.014 | 0.238 ± 0.083 | – | – | – | – | – | – | – | – | – | – | – |
| CNC(=O)c1ccc(-c2cnc3ncc(Cc4ccc5ncccc5c4)n3n2)cc1F [Capmatinib] | 1.1 ± 0.021 | 1.08 ± 0.016 | 1.098 ± 0.0065 | 1.06 ± 0.023 | 1.094 ± 0.0089 | 1.1 ± 0.032 | 1.09 ± 0.021 | 1.07 ± 0.035 | 1.09 ± 0.023 | 1.09 ± 0.021 | 1.09 ± 0.026 | – | – | – | – | – | – | – | – | – | – | – |
| COc1cccc2c1C(=O)c1c(O)c3c(c(O)c1C2=O)C[C@@](O)(C(=O)CO)C[C@@H]3O[C@H]1C[C@H](N)[C@H](O)[C@H](C)O1 [Doxorubicin Hydrochloride] | 1.09 ± 0.024 | 1.08 ± 0.04 | 1.07 ± 0.042 | 1.07 ± 0.0061 | 1.02 ± 0.062 | 1.04 ± 0.033 | 0.814 ± 0.038 | 0.475 ± 0.029 | 0.266 ± 0.014 | 0.0899 ± 0.0038 | 0.058 ± 0.0052 | – | – | – | – | – | – | – | – | – | – | – |
| CO[C@H]1C[C@@H]2CC[C@@H](C)[C@@](O)(O2)C(=O)C(=O)N2CCCC[C@H]2C(=O)O[C@H]([C@H](C)C[C@@H]2CC[C@@H](OP(C)(C)=O)[C@H](OC)C2)CC(=O)[C@H](C)/C=C(\C)[C@@H](O)[C@@H](OC)C(=O)[C@H](C)C[C@H](C)/C=C/C=C/C=C/1C [Ridaforolimus] | 1.11 ± 0.033 | 1.1 ± 0.011 | 1.09 ± 0.015 | 1.1 ± 0.016 | 1.08 ± 0.03 | 1.08 ± 0.033 | 1.07 ± 0.033 | 1.06 ± 0.045 | 1.07 ± 0.026 | 1.02 ± 0.032 | 1.01 ± 0.02 | – | – | – | – | – | – | – | – | – | – | – |
| Cc1cc(C)c(/C=C2\C(=O)Nc3ccccc32)[nH]1 [Semaxanib] | 1.04 ± 0.035 | 1.04 ± 0.025 | 1.05 ± 0.028 | 1.05 ± 0.037 | 1.03 ± 0.041 | 1.05 ± 0.02 | 1.04 ± 0.03 | 1 ± 0.027 | 0.989 ± 0.027 | 1.002 ± 0.008 | 0.927 ± 0.025 | – | – | – | – | – | – | – | – | – | – | – |
| CN1CCC(COc2cnc(-c3cccc(Cn4nc(-c5cccc(C#N)c5)ccc4=O)c3)nc2)CC1 [Tepotinib] | 1.09 ± 0.054 | 1.11 ± 0.024 | 1.11 ± 0.012 | 1.09 ± 0.013 | 1.08 ± 0.012 | 1.08 ± 0.026 | 1.07 ± 0.015 | 1.03 ± 0.023 | 1.01 ± 0.023 | 0.995 ± 0.021 | 0.975 ± 0.014 | – | – | – | – | – | – | – | – | – | – | – |
| COc1cc2c(Oc3ccc4[nH]c(C)cc4c3F)ncnc2cc1OCCCN1CCCC1 [Cediranib] | 1.08 ± 0.025 | 1.11 ± 0.02 | 1.09 ± 0.013 | 1.08 ± 0.015 | 1.09 ± 0.018 | 1.09 ± 0.014 | 1.04 ± 0.027 | 1.07 ± 0.029 | 1.036 ± 0.0041 | 1.05 ± 0.016 | 1.03 ± 0.023 | – | – | – | – | – | – | – | – | – | – | – |
| C[C@@H](c1ccc2nccn2c1)n1nnc2ncc(-c3cnn(C)c3)nc21 [Volitinib] | 1.07 ± 0.012 | 1.09 ± 0.018 | 1.09 ± 0.013 | 1.091 ± 0.0095 | 1.08 ± 0.015 | 1.08 ± 0.024 | 1.07 ± 0.015 | 1.06 ± 0.038 | 1.04 ± 0.035 | 1.02 ± 0.011 | 0.8916 ± 0.004 | – | – | – | – | – | – | – | – | – | – | – |
| CC1(C)CNc2cc(NC(=O)c3cccnc3NCc3ccncc3)ccc21 [Motesanib] | 1.03 ± 0.03 | 1.04 ± 0.021 | 1.03 ± 0.021 | 1.01 ± 0.028 | 1.02 ± 0.037 | 1.02 ± 0.023 | 1.03 ± 0.013 | 1.03 ± 0.021 | 1 ± 0.021 | 0.973 ± 0.024 | 0.882 ± 0.048 | – | – | – | – | – | – | – | – | – | – | – |
| N#CC[C@H](C1CCCC1)n1cc(-c2ncnc3[nH]ccc23)cn1 [Ruxolitinib] | 1.04 ± 0.024 | 1.04 ± 0.028 | 1.05 ± 0.03 | 1.03 ± 0.036 | 1.02 ± 0.033 | 1.03 ± 0.038 | 1.015 ± 0.0094 | 0.995 ± 0.062 | 0.988 ± 0.044 | 0.9816 ± 0.0032 | 0.809 ± 0.031 | – | – | – | – | – | – | – | – | – | – | – |
| Cc1nc(NC(=O)N2CCC[C@H]2C(N)=O)sc1-c1ccnc(C(C)(C)C(F)(F)F)c1 [Alpelisib] | 1.07 ± 0.031 | 1.073 ± 0.0087 | 1.06 ± 0.024 | 1.05 ± 0.021 | 1.03 ± 0.028 | 1.02 ± 0.018 | 1.02 ± 0.067 | 1.04 ± 0.014 | 0.992 ± 0.053 | 0.9227 ± 0.0047 | 0.828 ± 0.049 | – | – | – | – | – | – | – | – | – | – | – |
| CN1CCN(c2ccc3nc(-c4c(N)c5c(F)cccc5[nH]c4=O)[nH]c3c2)CC1 [Dovitinib] | 1.08 ± 0.038 | 1.11 ± 0.018 | 1.107 ± 0.0074 | 1.104 ± 0.007 | 1.13 ± 0.025 | 1.11 ± 0.029 | 1.1 ± 0.033 | 1.04 ± 0.07 | 1.03 ± 0.035 | 0.677 ± 0.029 | 0.248 ± 0.032 | – | – | – | – | – | – | – | – | – | – | – |
| COc1cc2c(cc1O)CCN[C@]21CS[C@@H]2c3c(OC(C)=O)c(C)c4c(c3[C@H](COC1=O)N1[C@@H]2[C@H]2c3c(cc(C)c(OC)c3O)C[C@@H]([C@@H]1O)N2C)OCO4 [Trabectedin] | – | – | – | – | – | – | – | – | – | – | – | 1.11 ± 0.026 | 1.11 ± 0.03 | 1.11 ± 0.028 | 1.09 ± 0.018 | 1.04 ± 0.029 | 0.0507 ± 0.011 | 0.0847 ± 0.0079 | 0.102 ± 0.0031 | 0.0529 ± 0.0034 | 1.1 ± 0.03 | 1.12 ± 0.022 |
| C=CC(=O)Nc1cccc(Oc2nc(Nc3ccc(N4CCN(C)CC4)cc3)nc3ccsc23)c1 [Olmutinib] | 1.058 ± 0.01 | 1.06 ± 0.011 | 1.068 ± 0.0024 | 1.067 ± 0.0084 | 1.07 ± 0.019 | 1.08 ± 0.026 | 1.054 ± 0.0094 | 1.074 ± 0.0078 | 1.06 ± 0.017 | 1.04 ± 0.029 | 0.926 ± 0.081 | – | – | – | – | – | – | – | – | – | – | – |
| CC(C)NC(=O)C1CCC(n2c(NC(=O)c3ccc(F)cc3)nc3ccc(CN4CCC(C(C)(C)O)CC4)cc32)CC1 (stereo not given) [Belizatinib] | 1.09 ± 0.025 | 1.095 ± 0.005 | 1.109 ± 0.0095 | 1.1 ± 0.02 | 1.104 ± 0.011 | 1.1 ± 0.021 | 1.1 ± 0.016 | 1.09 ± 0.028 | 1.09 ± 0.033 | 0.996 ± 0.059 | 0.654 ± 0.033 | – | – | – | – | – | – | – | – | – | – | – |
